This note sets out measurements from patent US20070191395A1 (priority 2004, published 2007).

Common to all, as to assay type: cell-based
Assay [1] deals with Candida krusei ATCC 44507. The experiment in a line: Antifungal activity, growth inhibition (alamar Blue), Candida krusei. The note with it: for GI50, 50% growth inhibition concentration, Candida krusei ATCC 44507: GI50 versus drug non-addition growth. As for the experimental part: (§1) Measuring method of the antifungal activities of the compounds of the present invention carried out in accordance with Japanese Journal of Medical Mycology, 40, 243-246, 1999, Japanese Society for Medical Mycology Standardization Committee, (alamar Blue), and the or 80% growth inhibition (GI50 or GI80) concentration (μg/ml) for drug non-addition growth as the positive control was measured.
For orientation: The colour change of resazurin is a common sign of viable cells or microbes.

Assay [2] relates to Candida glabrata ATCC 48435. The experiment in a line: Antifungal activity, growth inhibition (alamar Blue), Candida glabrata. Particulars: GI80 versus drug non-addition growth. The method, then: as §1
In assay [3] the test system is Saccharomyces cerevisiae AY-14. The experiment in a line: Antifungal activity, growth inhibition (alamar Blue), Saccharomyces cerevisiae. The note with it: GI80 versus drug non-addition growth. As for the experimental part: as §1
Assay [4] concerns Candida albicans ATCC MYA-573. The experiment in a line: Antifungal activity, growth inhibition (alamar Blue), Candida albicans. The note with it: GI50 versus drug non-addition growth. The method, then:
as §1

≈ marks a conversion by molar mass, not a printed value.

With `Cc1c(-c2ccccc2)c(N2CC[C@H](N(C)C)C2)n2cc(C(C)C)nc2c1C#N` [Example 8], the “GI50, 50% growth inhibition concentration, Candida krusei ATCC 44507” value in assay [1] is >4 µg/mL. Also, in assay [2], the “GI80, 80% growth inhibition concentration, Candida glabrata ATCC 48435” value worked out at 0.125 µg/mL (≈ 0.323 µM). Further, the “GI80, 80% growth inhibition concentration, Saccharomyces cerevisiae AY-14” value in assay [3] worked out at 2 µg/mL (≈ 5.16 µM). In assay [4], the “GI50, 50% growth inhibition concentration, Candida albicans ATCC MYA-573” value amounted to 1 µg/mL (≈ 2.58 µM).
Taken in the same sequence, the figures for `Cc1c(-c2ccccc2)c(N2CC[C@H](N(C)C)C2)n2cc(C(C)(C)C)nc2c1C#N` [Example 9, (3′S)-2-tert-Butyl-5-(3-dimethylaminopyrrolidin-1-yl)-7-methyl-6-phenylimidazo[1,2-a]pyridine-8-carbonitrile] were >4 µg/mL, 0.25 µg/mL (≈ 0.623 µM), 0.125 µg/mL (≈ 0.311 µM) and 0.25 µg/mL (≈ 0.623 µM).
Taken in the same sequence, the figures for `Cc1c(-c2ccccc2)c(N2CC[C@H](N(C)C)C2)n2nc(C(C)(C)C)nc2c1C#N` [Example 25] were >4 µg/mL, 0.125 µg/mL (≈ 0.311 µM), 0.063 µg/mL (≈ 0.157 µM) and 4 µg/mL (≈ 9.94 µM).
As to `C=C(C)c1nc2c(C#N)c(C)c(-c3ccccc3)c(N3CC[C@H](N(C)C)C3)n2n1` [Example 33], the “GI50, 50% growth inhibition concentration, Candida krusei ATCC 44507” value in assay [1] came out at 4 µg/mL (≈ 10.3 µM). For the same compound, the “GI80, 80% growth inhibition concentration, Candida glabrata ATCC 48435” value in assay [2] worked out at 0.008 µg/mL (≈ 0.0207 µM). Besides, in assay [3], the “GI80, 80% growth inhibition concentration, Saccharomyces cerevisiae AY-14” value is 0.004 µg/mL (≈ 0.0103 µM). Further, in assay [4], the “GI50, 50% growth inhibition concentration, Candida albicans ATCC MYA-573” value was determined as 4 µg/mL (≈ 10.3 µM).
In the case of `Cc1c(-c2ccccc2)c(N2CC[C@H](N(C)C)C2)n2nc(C(C)(C)COCc3ccccc3)nc2c1C#N` [Example 39], the “GI50, 50% growth inhibition concentration, Candida krusei ATCC 44507” value in assay [1] is >4 µg/mL. Also, in assay [2], the “GI80, 80% growth inhibition concentration, Candida glabrata ATCC 48435” value came out at 0.25 µg/mL (≈ 0.491 µM). Moreover, the “GI80, 80% growth inhibition concentration, Saccharomyces cerevisiae AY-14” value in assay [3] came out at 0.063 µg/mL (≈ 0.124 µM). In addition, the “GI50, 50% growth inhibition concentration, Candida albicans ATCC MYA-573” value in assay [4] was 0.5 µg/mL (≈ 0.983 µM).
Taken in the same sequence, the figures for `Cc1c(-c2ccccc2)c(N2CC[C@H](N(C)C)C2)n2nc(C(C)(C)C)cc2c1C#N` [Example 62] were 4 µg/mL (≈ 9.96 µM), 2 µg/mL (≈ 4.98 µM), 2 µg/mL (≈ 4.98 µM) and 4 µg/mL (≈ 9.96 µM).
In the case of `OC(Cn1cncn1)(Cn1cncn1)c1ccc(F)cc1F` [Fluconazole, reference compound], the GI50 is > 4 µg/mL in assay [1] (Pichia kudriavzevii, ATCC44507, GI50 versus drug non-addition growth, read-out: GI50, 50% growth inhibition concentration, Candida krusei ATCC 44507) and > 4 µg/mL in assay [4] (read-out: GI50, 50% growth inhibition concentration, Candida albicans ATCC MYA-573). Also, in assay [2], the “GI80, 80% growth inhibition concentration, Candida glabrata ATCC 48435” value was 4 µg/mL (≈ 13.1 µM). The “GI80, 80% growth inhibition concentration, Saccharomyces cerevisiae AY-14” value in assay [3] stood at 4 µg/mL (≈ 13.1 µM).
